Data set [1] concerns the target T1, human brain neurotoxic esterase (Homo sapiens, UniProt Q8IY17).
T1 construct: from tissue; host or cells: human brain
T1 sequence (Q8IY17 1-1375): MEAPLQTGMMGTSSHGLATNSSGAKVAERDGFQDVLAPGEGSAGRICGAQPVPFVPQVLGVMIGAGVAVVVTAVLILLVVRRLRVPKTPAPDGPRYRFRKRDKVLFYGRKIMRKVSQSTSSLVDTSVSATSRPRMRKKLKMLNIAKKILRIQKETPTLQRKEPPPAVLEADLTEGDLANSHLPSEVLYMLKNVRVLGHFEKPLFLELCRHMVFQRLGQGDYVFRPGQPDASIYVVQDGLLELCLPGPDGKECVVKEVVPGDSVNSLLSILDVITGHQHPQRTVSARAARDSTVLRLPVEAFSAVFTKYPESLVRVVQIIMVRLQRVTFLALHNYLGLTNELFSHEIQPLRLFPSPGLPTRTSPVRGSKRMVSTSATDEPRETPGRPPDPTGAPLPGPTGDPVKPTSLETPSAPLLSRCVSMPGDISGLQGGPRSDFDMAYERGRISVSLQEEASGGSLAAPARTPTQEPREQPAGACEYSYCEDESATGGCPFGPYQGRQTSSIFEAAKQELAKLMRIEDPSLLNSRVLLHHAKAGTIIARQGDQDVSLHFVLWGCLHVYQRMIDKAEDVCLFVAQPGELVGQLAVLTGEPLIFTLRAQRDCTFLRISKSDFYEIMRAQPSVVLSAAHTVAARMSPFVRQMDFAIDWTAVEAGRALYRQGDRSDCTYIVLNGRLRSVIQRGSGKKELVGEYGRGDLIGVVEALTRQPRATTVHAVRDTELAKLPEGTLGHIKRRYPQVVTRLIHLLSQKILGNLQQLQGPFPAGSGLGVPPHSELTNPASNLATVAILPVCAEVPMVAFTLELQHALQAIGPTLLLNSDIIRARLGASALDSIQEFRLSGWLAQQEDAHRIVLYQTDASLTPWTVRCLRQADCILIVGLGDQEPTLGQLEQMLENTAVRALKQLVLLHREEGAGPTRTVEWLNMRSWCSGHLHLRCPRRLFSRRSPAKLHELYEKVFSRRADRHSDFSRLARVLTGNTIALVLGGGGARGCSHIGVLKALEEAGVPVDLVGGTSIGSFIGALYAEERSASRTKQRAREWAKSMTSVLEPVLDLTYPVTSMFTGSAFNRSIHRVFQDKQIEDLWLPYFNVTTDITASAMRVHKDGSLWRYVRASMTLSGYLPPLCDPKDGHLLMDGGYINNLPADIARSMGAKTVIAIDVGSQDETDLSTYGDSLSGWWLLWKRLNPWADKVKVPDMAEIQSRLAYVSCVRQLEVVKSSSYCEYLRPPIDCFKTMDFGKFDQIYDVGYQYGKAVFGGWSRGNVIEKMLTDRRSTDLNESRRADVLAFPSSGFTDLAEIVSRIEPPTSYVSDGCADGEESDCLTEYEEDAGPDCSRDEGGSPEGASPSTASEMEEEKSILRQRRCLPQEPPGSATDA
Briefly: blocking of mepafox inhibition of neurotoxic esterase. The format is biochemical. The conditions noted are these: relative to the other compounds. An excerpt: The data in Table III were generated by determining what concentration of the various novel compounds were needed to block the inhibition of human brain neurotoxic esterase by a high concentration of mepafox.

A further data set deals with JH esterase. Particulars: crude juvenile hormone esterase from the cabbage looper; cited from earlier work.
Data set [2] deals with T. ni larvae. Particulars: cited from earlier work.
Data set [3] concerns T. ni larvae. Briefly: topical treatment of T. ni larvae, time of pupation. The conditions noted are these: 0.1 and 0.2μ mole per application, 3 times per day, L5D1 and D2, topical. The format is in vivo, Trichoplusia ni. Here is the method: (§1) T. ni larvae are treated with 1 or 2μ liters of ethanol, with TFPOS, wit o-ethyl-S-phenyl phosphoramidothiolate (EPPAT), or with 1,1,1-trifluorotetradecan-2-one (TFT) in 1×10^-1 M ethanol solutions on the dorsum of the thorax three times per day (4, 12 and 17 hr after lights on) during the first two days of the last larval stadium. The insects were held under standard rearing conditions (27° C., 14 hr light, 10 hr dark). The time of pupation was checked daily at 4 hr after lights on and the pupae were checked for successful emergence two weeks later.
(§2) Larvae were treated on the dorsum of the thorax with 1 or 2μ liters of ethanol (control) and with 1 or 2μ liters, respectively, of 10^-1 M TFT, TFPOS, DTFT or EPPAT in ethanol, 3 times per day at 4, 12 and 17 h ALO (after lights on) on L5Dl and D2. Time of pupation was checked daily at 4 h ALO, and emergence was checked 2 weeks after treatment. L5Dl larvae 4 h ALO were also treated, but only once with 1μ liter ethanol or with 1μ liter of 10-1 M TFT, TFPOS, or EPPAT in ethanol, and then were bled at 1, 8, 12, 23, 28, or 32 h after treatment. Hemolymph was collected from five larvae, mixed and frozen at -60° C. until assayed for JHE and α-NAE activity. […] Death usually occured during the larval-pupal transformation, with the control mortality at 2μ liters of ethanol being 1%, TFT at 0.2M being 6%, an TFPOS being 4%.

The next data set has as its system T. ni JHE. Briefly: removal of inhibitor by dialysis (reversibility of inhibition). The format is biochemical, Trichoplusia ni.
For data set [4], the system named is T. ni larvae. Briefly: mortality of T. ni larvae after repeated topical applications. Type of data set: in vivo, Trichoplusia ni. Here is the method: as §1, §2

Here are results for 2 compounds from patent US4562292A, “Trifluoromethylketone sulfides and reversible enzyme inhibition therewith” (priority 1983, dated 1985).

SMILES strings stand for the structures. Entries after “also recorded” stand apart in the source; their conditions may differ.

In the case of `O=C(CSc1ccc(Oc2ccc(SCC(=O)C(F)(F)F)cc2)cc1)C(F)(F)F` [Compound 35], in data set [1], the “potency in blocking neurotoxic esterase” value is reported as “most potent to date”.

Consider `CCCCCCCCCCCCC(=O)C(F)(F)F` [TFT, 1,1,1-trifluorotetradecan-2-one, reference compound], for which the “in vitro inhibition of juvenile hormone esterase (literature)” value in the data set with JH esterase is given as “relatively greater juvenile hormone esterase activity in vitro than EPPAT”. Moreover, the “in vivo activity, topical application to cabbage looper (literature)” value with T. ni larvae [2] is on record as “lack of pronounced in vivo activity”. Moreover, the “delay of pupation versus ethanol controls” value in the data set with T. ni larvae [3] is on record as “neither dose of TFT resulted in a delay in pupation; also recorded: no difference in the time of pupation; also recorded: no such in vivo effect”. In addition, the “enzyme activity after dialysis” value in the data set with T. ni JHE (48 hours after starting the dialysis) is on record as “restored gradually to the same activity as in the uninhibited enzyme”. Moreover, in the data set with T. ni JHE (dialysis), the t0.5 of reactivation result is on record as “more than 20 hours” and the “type of inhibition of T. ni JHE” value is recorded as “reversible inhibitors”. Moreover, in the data set on T. ni larvae [4] (Trichoplusia, topical, repeated applications of 2μ liters (0.2 moles/application), Example VIII), the mortality at 0.2 µmol/application amounted to 6%. Moreover, the mortality result with T. ni larvae [4] (repeated 1μ liter applications of 1×10^-1 M solution) is reported as “No mortality”.
